The text below walks through data of patent US6743598B2, “Methods for the identification of fungal glucose utilization inhibitors and antifungal agents” (priority 2001, dated 2004).

Test [1] concerns the target Chitin synthase. The settings on record: competitive substrate inhibitors of chitin synthase; cited from earlier work.
The target of test [2] is Yeast PGI (Saccharomyces cerevisiae, UniProt P12709). The settings on record: cited from earlier work.
In test [3] the target is T. brucei PGI (Trypanosoma brucei brucei, UniProt P13377). The settings on record: cited from earlier work.
Sequence of T. brucei PGI (P13377 whole entry): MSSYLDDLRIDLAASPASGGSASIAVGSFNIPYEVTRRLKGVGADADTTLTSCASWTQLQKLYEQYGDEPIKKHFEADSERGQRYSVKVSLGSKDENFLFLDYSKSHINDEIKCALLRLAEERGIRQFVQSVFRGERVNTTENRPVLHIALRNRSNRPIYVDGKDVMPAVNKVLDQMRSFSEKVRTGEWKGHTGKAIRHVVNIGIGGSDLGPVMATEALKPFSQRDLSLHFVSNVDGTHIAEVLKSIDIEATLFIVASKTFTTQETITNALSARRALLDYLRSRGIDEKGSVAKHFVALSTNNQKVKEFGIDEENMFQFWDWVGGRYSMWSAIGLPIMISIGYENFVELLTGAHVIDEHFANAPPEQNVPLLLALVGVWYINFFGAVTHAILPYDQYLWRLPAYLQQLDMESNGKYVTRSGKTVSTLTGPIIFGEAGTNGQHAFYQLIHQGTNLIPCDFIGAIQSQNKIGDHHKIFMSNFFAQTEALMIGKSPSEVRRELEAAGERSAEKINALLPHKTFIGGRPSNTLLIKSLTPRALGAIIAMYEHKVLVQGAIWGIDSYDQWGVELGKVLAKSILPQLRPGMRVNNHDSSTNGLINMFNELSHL
In test [4] the target is Rabbit phosphoglucose isomerase (Oryctolagus cuniculus, UniProt Q9N1E2). The settings on record: low ionic strength, cited from earlier work.
Test [5] relates to A. fumigatus phosphoglucose isomerase, ketol-isomerase, and N-acetyltransferase. The test can be described thus: Colorimetric CoA(GlcNAc-6-P) formation assay in crude A. fumigatus lysates. Format: biochemical, Aspergillus fumigatus. The settings on record: added to crude A. fumigatus lysates, FIG. 5. How it is done: A. fumigatus ATCC16424 (a human clinical isolate) was inoculated into liquid YG medium [1% (w/v) yeast extract and 1% (w/v) glucose] with 1×10^7 conidia per/mL (final concentration), and incubated for 18 hours at 37° C. with shaking (250 rpm). Hyphae were harvested by vacuum filtration over Whatman No. 2 filter paper, washed twice with ice-cold water, quick-frozen in dry ice, and stored at −80° C.
Frozen A. fumigatus hyphae were thawed and disrupted by bead-beating (6×30 seconds pulses with 2 minutes cooling between each pulse) using 0.5 mm zirconium beads in KI buffer (600 mM sucrose, 1 mM KCl, 1 mM EDTA, 50 mM PIPES, pH 6.8). The lysates were centrifuged at 1,000×g for 10 minutes at 4° C. The supernatants were stored at −80° C. and used as enzyme sources. The protein concentration of the supernatants was determined using the BioRad protein assay kit.
Reactions were performed in 96-well flat bottom microtiter plates containing 10 mM Glc-6-P, 10 mM glutamine, 200 μM AcCoA, and 0.25 mg/mL cell lysate of A. fumigatus at pH 6.8 in a final volume of 50 μL. […] After incubation for 10 minutes at room temperature, the OD412 was measured using a microtiter plate reader. […] The amount of CoA formed by reaction mixtures was calculated from the standard curve. […]

Test [6] addresses yeast phosphoglucose isomerase (Saccharomyces cerevisiae, UniProt P12709). The settings on record: cited from earlier work.
Test [7] concerns the target T. brucei phosphoglucose isomerase (Trypanosoma brucei brucei, UniProt P13377). The settings on record: cited from earlier work.
The mark [8] stands for this setting: competitive inhibitor, low ionic strength, read-out: Gluconate-6-P Ki.
The mark [9] stands for this setting: read-out: Fru-6-P Km, low ionic strength.

Entries after “also recorded” stand apart in the source; their conditions may differ.

Sequence of T. brucei phosphoglucose isomerase (P13377 whole entry): as above
Sequence of yeast phosphoglucose isomerase (P12709 2-554): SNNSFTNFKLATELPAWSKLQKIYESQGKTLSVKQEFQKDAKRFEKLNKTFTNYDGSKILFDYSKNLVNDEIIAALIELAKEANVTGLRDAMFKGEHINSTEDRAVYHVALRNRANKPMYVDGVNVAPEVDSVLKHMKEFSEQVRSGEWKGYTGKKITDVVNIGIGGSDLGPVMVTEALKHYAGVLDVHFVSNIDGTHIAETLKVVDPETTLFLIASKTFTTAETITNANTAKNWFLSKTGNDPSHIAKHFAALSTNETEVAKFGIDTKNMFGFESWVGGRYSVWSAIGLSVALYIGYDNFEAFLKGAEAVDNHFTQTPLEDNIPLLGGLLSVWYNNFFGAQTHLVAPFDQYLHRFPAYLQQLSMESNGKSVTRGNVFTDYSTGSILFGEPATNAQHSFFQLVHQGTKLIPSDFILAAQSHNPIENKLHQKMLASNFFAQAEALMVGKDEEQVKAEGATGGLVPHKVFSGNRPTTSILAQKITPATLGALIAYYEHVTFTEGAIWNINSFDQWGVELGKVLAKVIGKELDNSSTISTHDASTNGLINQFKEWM
Sequence of Yeast PGI (P12709 2-554): as above

As for polyoxins, the “inhibition constants (Ki)” value in test [1] is reported as “in the μM range”.

In the case of `O=C(NO)[C@@H](O)[C@H](O)[C@H](O)COP(=O)(O)O` [D-Arabinohydroxamic acid-5-phosphate], in test [2], the Ki (as a rule, the equilibrium dissociation constant of an inhibitor or competing ligand from its target) is 0.23 ± 0.02 µM and the Km/Ki is 300. Besides, in test [3] (T. brucei PGI), the Ki was 0.05 ± 0.009 µM and the Km/Ki is recorded as 2060. Moreover, the “specificity for T. brucei phosphoglucose isomerase versus yeast isomerase” value in test [3] (T. brucei versus yeast) was 4.6 fold.

`O=C(O)[C@H](O)[C@@H](O)[C@H](O)[C@H](O)COP(=O)(O)O` [Gluconate-6-P, gluconate-6-phosphate]: the Ki was 120 ± 30 µM in test [4] (competitive inhibitor, read-out: Gluconate-6-P Ki); 480 ± 120 µM in test [6] (setting [8]); 140 ± 30 µM in test [7] (setting [8]). For the same compound, the “inhibition of CoA (GlcNAc-6-P) formation” value in test [5] is “inhibited the formation of CoA (GlcNAc-6-P) in a dose-dependent manner; also recorded: inhibited the production of CoA in a dose dependent manner”.

On to “uridine diphosphate-N-acetyl glucosamine [UDP-GlcNAc]”, for which the “inhibition of CoA (GlcNAc-6-P) formation” value in test [5] is “inhibited the formation of CoA (GlcNAc-6-P) in a dose-dependent manner; also recorded: inhibited the production of CoA in a dose dependent manner”.

With `O=C(CO)[C@@H](O)[C@H](O)[C@H](O)COP(=O)(O)O` [Fru-6-P, fructose-6-phosphate], the values for the Km in test [4] (read-out: Fru-6-P Km), in test [6] (setting [9]) and in test [7] (setting [9]) were 119 ± 28 µM, 167 ± 48 µM and 122 ± 45 µM, respectively.
